For data set [1], the target named is JAK1 (Homo sapiens (Human), UniProt P23458). As to the kind of experiment: Jak biochemical HTRF enzyme assay, JAK1. A general note: TR-FRET usually uses a lanthanide donor and a delayed reading to cut background.
For data set [2] the following is noted: dogs with allergic or atopic dermatitis; cited from earlier work.
The conditions of data set [3]: dogs, higher doses; cited from earlier work.
The test system of data set [4] is Interleukin 6 (IL6)—JAK1/JAK2-STAT4 Pathway. As to the kind of experiment: IL6 CellSensor cell pathway engagement assay (SIE-bla ME-180 cells). The note with it: for IC50: Homo sapiens; for EPO/IL-6: Table 3, comparative examples.
Excerpt: Inhibition of the activity of JAK1 and JAK2 kinases in intact cells was quantified in antagonist mode using CellSensor® transcriptional reporter technology (Life Technologies/ThermoFisher: https://www.thermofisher.com/us/en/home/industrial/pharma-biopharma/drug-discovery-development/target-and-lead-identification-and-validation/pathway-biology/cellular-pathway-analysis/cellsensor-cell-lines.html), in two independent cell lines engineered to detect IL4, IL6 and EPO signaling. In brief, CellSensor® cell lines (see details below for each assay) carrying a stably integrated β-Lactamase reporter gene under control of specific cis-regulatory STAT elements responsive to the pathway being monitored were pre-treated with test compounds serially diluted in DMSO (see preparation and dosing of compounds and agonist cytokines section). […] Incubation with compounds, cytokines and LiveBLAzer™ were carried out at 37° C. in a tissue culture incubator maintained at 90% humidity and 5% CO2.
Interleukin 6 (IL6)—JAK1/JAK2-STAT4 Pathway:
CellSensor™ SIE-bla ME-180 cells carrying a stably integrated β-Lactamase reporter gene under control of the Sis-Inducible Element (SIE).
Each CellSensor® cell line was subsequently plated as per supplier's instructions (30,000 cells in 32 μL/well) and mixed with compound. Following a 60 minute incubation cells were subsequently stimulated by addition of 8 μL of cognate cytokine (EC80 dose of IL6 and EPO) and incubated for an additional 3 hours, before adding LiveBLAzer™-FRET B/G substrate.
The target of data set [5] is JAK3 (Homo sapiens (Human), UniProt P52333). The data set can be described thus: Jak biochemical HTRF enzyme assay, JAK3. To be noted: Table 1. The text has this:
Jak Biochemical HTRF Enzyme Assay Protocol
The ability of compounds to inhibit the catalytic activity of JAK1, JAK2, JAK3, and TYK2 was quantified using a recombinant purified GST-tagged catalytic domain for each enzyme (InVitrogen/Life Technologies/ThermoFisher, catalogue #s: JAK1, #M4290; […]) in an HTRF format biochemical assay. […] Subsequent reagent additions employed an Agilent Bravo automated liquid handler. […] After normalization to untreated controls, the percent inhibition of the HTRF signal at each compound concentration was calculated. The plot of percent inhibition versus the log value of compound concentration was done as described above for cell assays to calculate IC50 values.

Data set [6] concerns Erythropoietin (EPO)—JAK2-STAT5 Pathway. The data set can be described thus: EPO CellSensor cell pathway engagement assay (irf1-bla TF-1 cells). Format: cell-based. To be noted: Homo sapiens, Table 1. The method, then:
In brief, CellSensor® cell lines (see details below for each assay) carrying a stably integrated β-Lactamase reporter gene under control of specific cis-regulatory STAT elements responsive to the pathway being monitored were pre-treated with test compounds serially diluted in DMSO (see preparation and dosing of compounds and agonist cytokines section). […] Incubation with compounds, cytokines and LiveBLAzer™ were carried out at 37° C. in a tissue culture incubator maintained at 90% humidity and 5% CO2.
CellSensor irf1-bla TF-1 cells carry a stably integrated β-Lactamase reporter gene under control of the STAT5 Response Elements present in the Interferon Regulatory Factor I (IRF1) gene promoter.

The nature of data set [7]: Dog pharmacokinetics after IV administration. To be noted: in vivo, 0.25 mg/kg I.V. As for the experimental part: Examples of the instant invention were evaluated in JAK1, JAK2, and JAK3 in vitro binding assays, and IL-6 and EPO cell pathway engagement assays, as described above. Table 1 tabulates the IC50 values of the instant invention in the JAK1, JAK2, and JAK3 in the in vitro binding assays, and the IL-6 and EPO cell pathway engagement assays, as well as the ratio of the JAK2/JAK1 IC50s, JAK3/JAK1 IC50s, and the EPO/IL-6 IC50s. Table 2 tabulates the pharmacokinetic parameters of the instant invention in the dog after IV administration.

Data set [8] in a line: IL-31 induced itching model. To be noted: dog, in vivo, 1 mg/kg body weight; Beagle dogs, dosing before cIL-31 challenge; read-out: approximate Tmax. Format: in vivo, Beagle dogs.
For data set [9], the system named is cIL-31 induced pruritus. The data set can be described thus: IL-31 induced itching model. Format: in vivo, Beagle dogs.
Data set [10] can be described thus: 6-week pilot target animal safety study. To be noted: for NOAEL at 6 weeks: dog, in vivo, po.
Description: The drug was administered orally, as a compressed tablet, twice per day for 6 weeks to dogs at 1, 3, and 5 times the maximum exposure dose of 0.5 mg/kg, or once per day for 6 weeks to dogs at 5 times the maximum exposure dose of 1 mg/kg.
Where [11] appears, read: ME-180, read-out: IL-6 IC50 (nM).
Where [12] appears, read: 0.5 mg/kg body weight, second study.
Where [13] appears, read: dogs, oral, 6 weeks, up to 5 times maximum exposure dose.

Like-named read-outs stand apart in the source and are kept apart here.

Sequence of JAK1 (P23458 875-1153): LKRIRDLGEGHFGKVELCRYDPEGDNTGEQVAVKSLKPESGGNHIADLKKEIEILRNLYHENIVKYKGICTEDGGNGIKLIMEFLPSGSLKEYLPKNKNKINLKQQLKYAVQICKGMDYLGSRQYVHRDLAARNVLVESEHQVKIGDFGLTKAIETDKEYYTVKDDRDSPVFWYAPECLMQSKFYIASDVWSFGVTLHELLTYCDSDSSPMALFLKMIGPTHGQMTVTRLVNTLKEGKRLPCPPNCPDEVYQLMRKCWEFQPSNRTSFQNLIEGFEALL
Sequence of JAK3 (P52333 822-1111): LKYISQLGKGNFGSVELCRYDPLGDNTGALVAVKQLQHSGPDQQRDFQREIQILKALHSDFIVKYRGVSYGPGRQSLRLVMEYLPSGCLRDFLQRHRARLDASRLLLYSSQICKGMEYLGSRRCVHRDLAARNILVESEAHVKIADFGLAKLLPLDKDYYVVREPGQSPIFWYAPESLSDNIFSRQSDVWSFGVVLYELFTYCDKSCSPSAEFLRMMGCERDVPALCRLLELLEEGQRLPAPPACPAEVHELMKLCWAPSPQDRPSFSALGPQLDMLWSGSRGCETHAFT

Take `CNS(=O)(=O)C[C@H]1CC[C@H](N(C)c2ncnc3[nH]ccc23)CC1` [Oclacitinib]: the IC50 in data set [1] (Table 3, comparative examples) is 3.4 nM; in data set [4] (ME-180, read-out: IL-6 IP (nM)) it was 230 nM. In addition, the JAK2/1 in [1] (Table 3, comparative examples) was 2.0x. For the same molecule, the “effect on pruritus and lesions” value in data set [2] was “rapid amelioration of pruritus and reduces lesions”. Besides, in data set [3], the “effect on hematocrit, hemoglobin and reticulocyte counts” value is on record as “reduction”. This molecule came in with an EPO/IL-6 in data set [4] of 2.4x.
Turning to `COc1cc(Nc2nn([C@@H]3COCC[C@H]3C#N)cc2C(N)=O)cc(F)n1` [Enantiomer of 1], the IC50 in data set [1] (Table 1) was 17.7 nM; in data set [5] it was more than 1250 nM; in [6] it was 9480 nM; in data set [4] (setting [11]) it was 2440 nM.
Take `N#CCC1(n2cc(-c3ncnc4[nH]ccc34)cn2)CN(C2CCN(C(=O)c3ccnc(C(F)(F)F)c3F)CC2)C1` [INCB39110]: the IC50 was 0.3 nM in data set [1] (Table 3, comparative examples) and 97 nM in data set [4] (ME-180, read-out: IL-6 IP (nM)). The JAK2/1 in data set [1] (Table 3, comparative examples) is 10x. In [4], this molecule yielded an EPO/IL-6 of 5x.
Turning to `COc1cc(Nc2nn([C@H]3COCC[C@@H]3C#N)cc2C(N)=O)cc(F)n1` (single isomer, unassigned) [Compound 1, 1-((3R,4S) or (3S,4R)-4-cyanotetrahydro-2H-pyran-3-yl)-3-((2-fluoro-6-methoxypyridin-4-yl)amino)-1H-pyrazole-4-carboxamide], the IC50 in data set [1] was found to be 0.43 nM; in data set [5] it was 1130 nM; in data set [6], 460 nM; in data set [4] (setting [11]), 41.8 nM. In [7], this molecule had an AUC of 1.29 µM·h. In data set [7], this molecule yielded a clearance of 9.42 mL/min/kg. In addition, in data set [7], the half-life is 4.38 h. Further, in data set [7] (read-out: Vdss), the Vd was determined as 1.95 L/kg. For the same molecule, in [8], the time to peak (Tmax) was approximately 2 h. Moreover, the “suppression of cIL-31 induced pruritus” value in [9] (0.05 mg/kg body weight (sentence prints 0.5), second study) was “not”; in data set [9] (0.1 mg/kg body weight, second study), “not”; in data set [9] (setting [12]), “significantly suppressed”; in [9] (1 mg/kg body weight, dosed 2 h prior to cIL-31 challenge, first study) it was “significantly suppressed”. The “magnitude of effect compared with Apoquel” value in [9] (setting [12]) is on record as “similar”. Also, in [9] (1 mg/kg body weight, first study), the “magnitude of pruritus suppression compared with Apoquel” value is recorded as “similar”. Moreover, the no observed adverse effect level (NOAEL) at 6 weeks is 2.5 mg/kg in data set [10] and 5 mg/kg/day in [10] (5 mg/kg once per day). Moreover, the “test article related effects in clinical observations, fecal observations, body weight, food consumption, physical examination, blood pressure, ophthalmology, cardiology” value in data set [10] (setting [13]) was “No test article related effects were observed”. Besides, the “test article related effects in postmortem evaluations (organ weights, macroscopic and microscopic findings)” value in data set [10] (setting [13]) is “No test article related effects were observed”.
Molecule `N#CC[C@H](C1CCCC1)n1cc(-c2ncnc3[nH]ccc23)cn1` [JAKAFI] returned a JAK2/1 in data set [1] of 0.7x. For the same molecule, the IC50 in data set [4] (ME-180, read-out: IL-6 IP (nM)) was 40 nM. Moreover, in data set [4], the EPO/IL-6 was determined as 0.2x.
For the molecule `CS(=O)(=O)c1ccc(Nc2nn([C@H]3CCCC[C@@H]3C#N)c3cc[nH]c(=O)c23)cc1` [B, (1S,2S)-2-(3-{[4-(methylsulfonyl)phenyl]amino}-4-oxo-4,5-dihydro-1H-pyrazolo[4,3-c]pyridin-1-yl)cyclohexanecarbonitrile], the “potency in IL6 CellSensor assay relative to EPO CellSensor assay” value in [4] (IL6 versus EPO assay) is “within two-three fold”.
Regarding `CN(C)[C@H]1CC[C@H](n2cc(C(N)=O)c(Nc3ccc(Cl)cc3)n2)[C@@H](C#N)C1` (single isomer, unassigned) [Reference Compound A, 3-[(4-chlorophenyl)amino]-1-[(1S,2S,4S or 1R,2R,4R)-2-cyano-4-(dimethylamino)cyclohexyl]-1H-pyrazole-4-carboxamide], the IC50 in data set [1] (Table 3, comparative examples) turned out to be 1.67 nM.

In general, AUC refers to the area under the concentration-time curve, a measure of exposure. Lower therefore signals low exposure. The term clearance denotes the rate of elimination divided by the concentration. A word on the half-life: it is the time needed for the level to fall by half in the phase considered. A higher half-life goes with slow loss. What is called Tmax is the time at which the peak concentration occurs. A word on the NOAEL: it is the highest tested level that showed no adverse finding.
